Measured values from US9695155B2, “Herbicidal substituted pyrimidinyloxy benzene compounds” (E. I. DU PONT DE NEMOURS AND COMPANY, priority 2013, dated 2017).

Tests used:
[1] = system: lambsquarters; assay: Test D postemergence; type: in vivo, Chenopodium album; settings: Chenopodium album, post-emergence
How it was run: (§1)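 Visual rating vs untreated controls, 0 = no effect, 100 = complete control, taken 7–21 d after treatment. Pre: silt loam soil. Post: potting medium, plants 2–18 cm, 1–4 leaf. Formulation: non-phytotoxic solvent mix + surfactant.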

[2] = system: winter barley; assay: Test D postemergence; type: in vivo, Hordeum vulgare; settings: Hordeum vulgare, post-emergence, Postemergence, scale 0 to 100 (0 no effect, 100 complete control), read-out: Plant response rating, Barley, Winter
How it was run: as §1

[3] = system: spring barley; assay: Test D postemergence; type: in vivo, Hordeum vulgare; settings: Hordeum vulgare, post-emergence, Postemergence, scale 0 to 100 (0 no effect, 100 complete control), read-out: Plant response rating, Barley, Spring
How it was run: as §1

[4] = system: chamomile; assay: Test D postemergence; type: in vivo, Matricaria inodora; settings: Tripleurospermum inodorum, post-emergence
How it was run: as §1

[5] = system: bromegrass, downy; assay: Test D preemergence; type: in vivo, Bromus tectorum; settings: Bromus tectorum, pre-emergence
How it was run: as §1

[6] = system: bluegrass; assay: Test D preemergence; type: in vivo, Poa annua; settings: Poa annua, pre-emergence
How it was run: as §1

[7] = system: bluegrass; assay: Test D postemergence; type: in vivo, Poa annua; settings: Poa annua, post-emergence, Postemergence, scale 0 to 100 (0 no effect, 100 complete control), read-out: Plant response rating, Bluegrass
How it was run: as §1

[8] = system: blackgrass; assay: Test D preemergence; type: in vivo, Alopecurus myosuroides; settings: Alopecurus myosuroides, pre-emergence
How it was run: as §1

[9] = system: wild oat; assay: Test D postemergence; type: in vivo, Avena fatua; settings: Avena fatua, post-emergence
How it was run: as §1

[10] = system: canarygrass; assay: Test D preemergence; type: in vivo, Phalaris minor; settings: Phalaris minor, pre-emergence
How it was run: as §1

[11] = system: green foxtail; assay: Test D preemergence; type: in vivo, Setaria viridis; settings: Setaria viridis, pre-emergence
How it was run: as §1

[12] = system: bromegrass, downy; assay: Test D postemergence; type: in vivo, Bromus tectorum; settings: Bromus tectorum, post-emergence, Postemergence, scale 0 to 100 (0 no effect, 100 complete control), read-out: Plant response rating, Bromegrass, Downy
How it was run: as §1

`Fc1cccc(Oc2ncc(Cl)cn2)c1-n1cc(Br)cn1` [Compound 178, 2-[2-(4-bromo-1H-pyrazol-1-yl)-3-fluorophenoxy]-5-chloropyrimidine] showed a pest or weed control at 16 g/ha ([1]; 16 g ai/ha, scale 0-100, read-out: Plant response rating, Lambsquarters) of 65%, a pest or weed control at 31 g/ha ([1]; 31 g ai/ha, scale 0 to 100 (0 no effect, 100 complete control), read-out: Plant response rating, Lambsquarters) of 70% and a pest or weed control at 62 g/ha ([1]; 62 g ai/ha, scale 0 to 100 (0 no effect, 100 complete control), read-out: Plant response rating, Lambsquarters) of 75%. For the same molecule, the pest or weed control at 125 g/ha ([1]; 125 g ai/ha, scale 0 to 100 (0 no effect, 100 complete control), read-out: Plant response rating, Lambsquarters) was 85%, the plant injury at 16 g/ha ([2]; 16 g ai/ha) was 0% and the plant injury at 31 g/ha ([2]; 31 g ai/ha) was 0%. The plant injury at 62 g/ha ([2]; 62 g ai/ha) was 5%, the plant injury at 125 g/ha ([2]; 125 g ai/ha) was 10% and the plant injury at 16 g/ha ([3]; 16 g ai/ha) was 0%. It also gave a plant injury at 31 g/ha ([3]; 31 g ai/ha) of 5%, a plant injury at 62 g/ha ([3]; 62 g ai/ha) of 5% and a plant injury at 125 g/ha ([3]; 125 g ai/ha) of 10%. For the same molecule, the pest or weed control at 16 g/ha ([4]; 16 g ai/ha, scale 0-100, read-out: Plant response rating, Chamomile) was 0%, the pest or weed control at 31 g/ha ([4]; 31 g ai/ha, scale 0 to 100 (0 no effect, 100 complete control), read-out: Plant response rating, Chamomile) was 0% and the pest or weed control at 62 g/ha ([4]; 62 g ai/ha, scale 0 to 100 (0 no effect, 100 complete control), read-out: Plant response rating, Chamomile) was 5%. For the same molecule, the pest or weed control at 125 g/ha ([4]; 125 g ai/ha, scale 0 to 100 (0 no effect, 100 complete control), read-out: Plant response rating, Chamomile) was 5%, the pest or weed control at 16 g/ha ([5]; 16 g ai/ha, scale 0 (no effect) to 100 (complete control), read-out: Plant response rating, Bromegrass, Downy) was 0% and the pest or weed control at 31 g/ha ([5]; 31 g ai/ha, scale 0-100, read-out: Plant response rating, Bromegrass, Downy) was 0%. For the same molecule, the pest or weed control at 62 g/ha ([5]; 62 g ai/ha, scale 0-100, read-out: Plant response rating, Bromegrass, Downy) was 0%, the pest or weed control at 125 g/ha ([5]; 125 g ai/ha, scale 0-100, read-out: Plant response rating, Bromegrass, Downy) was 10% and the pest or weed control at 16 g/ha ([6]; 16 g ai/ha, scale 0 (no effect) to 100 (complete control), read-out: Plant response rating, Bluegrass) was 0%. It also gave a pest or weed control at 31 g/ha ([6]; 31 g ai/ha, scale 0-100, read-out: Plant response rating, Bluegrass) of 10%, a pest or weed control at 62 g/ha ([6]; 62 g ai/ha, scale 0-100, read-out: Plant response rating, Bluegrass) of 20% and a pest or weed control at 125 g/ha ([6]; 125 g ai/ha, scale 0-100, read-out: Plant response rating, Bluegrass) of 70%. It also gave a pest or weed control at 16 g/ha ([7]; 16 g ai/ha) of 20%, a pest or weed control at 31 g/ha ([7]; 31 g ai/ha) of 30% and a pest or weed control at 62 g/ha ([7]; 62 g ai/ha) of 35%. The pest or weed control at 125 g/ha ([7]; 125 g ai/ha) was 55%, the pest or weed control at 16 g/ha ([8]; 16 g ai/ha, scale 0 (no effect) to 100 (complete control), read-out: Plant response rating, Blackgrass) was 5% and the pest or weed control at 31 g/ha ([8]; 31 g ai/ha, scale 0-100, read-out: Plant response rating, Blackgrass) was 10%. For the same molecule, the pest or weed control at 62 g/ha ([8]; 62 g ai/ha, scale 0-100, read-out: Plant response rating, Blackgrass) was 35%, the pest or weed control at 125 g/ha ([8]; 125 g ai/ha, scale 0-100, read-out: Plant response rating, Blackgrass) was 85% and the pest or weed control at 16 g/ha ([9]; 16 g ai/ha, scale 0-100, read-out: Plant response rating, Oat, Wild) was 20%. For the same molecule, the pest or weed control at 31 g/ha ([9]; 31 g ai/ha, scale 0 to 100 (0 no effect, 100 complete control), read-out: Plant response rating, Oat, Wild) was 25%, the pest or weed control at 62 g/ha ([9]; 62 g ai/ha, scale 0 to 100 (0 no effect, 100 complete control), read-out: Plant response rating, Oat, Wild) was 25% and the pest or weed control at 125 g/ha ([9]; 125 g ai/ha, scale 0 to 100 (0 no effect, 100 complete control), read-out: Plant response rating, Oat, Wild) was 25%. For the same molecule, the pest or weed control at 16 g/ha ([10]; 16 g ai/ha, scale 0 (no effect) to 100 (complete control), read-out: Plant response rating, Canarygrass) was 10%, the pest or weed control at 31 g/ha ([10]; 31 g ai/ha, scale 0-100, read-out: Plant response rating, Canarygrass) was 60% and the pest or weed control at 62 g/ha ([10]; 62 g ai/ha, scale 0-100, read-out: Plant response rating, Canarygrass) was 60%. The pest or weed control at 125 g/ha ([10]; 125 g ai/ha, scale 0-100, read-out: Plant response rating, Canarygrass) was 95%, the pest or weed control at 16 g/ha ([11]; 16 g ai/ha, scale 0 (no effect) to 100 (complete control), read-out: Plant response rating, Foxtail, Green) was 0% and the pest or weed control at 31 g/ha ([11]; 31 g ai/ha, scale 0-100, read-out: Plant response rating, Foxtail, Green) was 0%. For the same molecule, the pest or weed control at 62 g/ha ([11]; 62 g ai/ha, scale 0-100, read-out: Plant response rating, Foxtail, Green) was 5%, the pest or weed control at 125 g/ha ([11]; 125 g ai/ha, scale 0-100, read-out: Plant response rating, Foxtail, Green) was 95% and the pest or weed control at 16 g/ha ([12]; 16 g ai/ha) was 5%. For the same molecule, the pest or weed control at 31 g/ha ([12]; 31 g ai/ha) was 5%, the pest or weed control at 62 g/ha ([12]; 62 g ai/ha) was 10% and the pest or weed control at 125 g/ha ([12]; 125 g ai/ha) was 20%.
